Values quoted from earlier work, collected in patent publication US20240316118A1, “ANTIVIRAL NASAL SPRAY FLAVONOIDS?BEE PROPOLIS” (priority 2022, published 2024).
Converted amounts (≈) assume the structure as drawn. Where two headings read alike, the source gives them in different places.

Key:
Rotavirus virions = settings: Rhesus Rotavirus, Ref. [20]
Phosphoprotein P = settings: Ref. [32]; for Molecular Mechanisms: viral replication: RSV
NS5A, HSP70, HCV virions = settings: Ref. [41]
Envelope protein, 2 = Envelope protein, 2 (Hepatitis C virus genotype 1a, UniProt P26664); settings: HCV Envelope protein 2, Ref. [41]
Envelope protein, 2, sequence (P26664 384-746): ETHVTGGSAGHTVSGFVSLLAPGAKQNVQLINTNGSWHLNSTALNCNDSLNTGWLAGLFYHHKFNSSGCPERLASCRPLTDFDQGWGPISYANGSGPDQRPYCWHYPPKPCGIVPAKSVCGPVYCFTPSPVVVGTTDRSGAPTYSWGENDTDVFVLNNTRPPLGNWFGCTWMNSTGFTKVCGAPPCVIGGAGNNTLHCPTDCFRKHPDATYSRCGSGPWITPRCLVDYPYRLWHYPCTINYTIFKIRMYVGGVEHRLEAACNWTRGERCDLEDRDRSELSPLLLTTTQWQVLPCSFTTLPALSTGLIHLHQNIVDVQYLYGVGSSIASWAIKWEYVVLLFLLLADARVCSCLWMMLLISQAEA

Reverse transcriptase = Reverse transcriptase (Human immunodeficiency virus type 1 group M subtype B, UniProt P04585); settings: Refs. [43], [31]
NTCP receptor = NTCP receptor (Homo sapiens, UniProt Q14973)
NTCP receptor, sequence (Q14973 whole entry): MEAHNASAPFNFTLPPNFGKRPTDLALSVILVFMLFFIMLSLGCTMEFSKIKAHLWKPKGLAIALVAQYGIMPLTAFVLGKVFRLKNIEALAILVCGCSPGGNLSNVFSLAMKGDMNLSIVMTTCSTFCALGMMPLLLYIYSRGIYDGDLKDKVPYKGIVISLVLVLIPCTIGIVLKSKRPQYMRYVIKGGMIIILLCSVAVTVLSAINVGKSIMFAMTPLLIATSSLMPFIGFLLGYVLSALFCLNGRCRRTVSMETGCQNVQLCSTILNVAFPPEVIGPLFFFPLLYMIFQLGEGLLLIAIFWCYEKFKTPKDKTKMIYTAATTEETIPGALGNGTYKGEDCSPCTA

HIV protease = HIV protease (Human immunodeficiency virus type 1 group M subtype B, UniProt P04585); settings: Ref. [27] (computational)
NS1 = NS1 (Dengue virus type 2, UniProt P29990); settings: Ref. [23] (molecular docking)
NS1, sequence (P29990 776-1127 limits assumed): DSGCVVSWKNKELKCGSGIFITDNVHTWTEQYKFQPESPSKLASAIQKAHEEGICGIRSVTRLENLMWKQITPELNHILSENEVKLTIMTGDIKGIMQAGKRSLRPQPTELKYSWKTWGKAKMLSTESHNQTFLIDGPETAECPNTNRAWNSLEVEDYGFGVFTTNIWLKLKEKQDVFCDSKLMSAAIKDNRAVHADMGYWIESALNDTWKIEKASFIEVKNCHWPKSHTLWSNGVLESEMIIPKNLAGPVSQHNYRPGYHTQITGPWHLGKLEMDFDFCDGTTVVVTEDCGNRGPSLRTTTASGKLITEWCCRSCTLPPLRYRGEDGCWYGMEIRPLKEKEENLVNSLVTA

HCV replicase = settings: Ref. [19]
NS5B polymerase = NS5B polymerase (Hepatitis C virus genotype 1a, UniProt P26664); settings: for Molecular Mechanisms: HCV replication: NS5B polymerase, Refs. [33], [40]
NS5B polymerase, sequence (P26664 2421-3011): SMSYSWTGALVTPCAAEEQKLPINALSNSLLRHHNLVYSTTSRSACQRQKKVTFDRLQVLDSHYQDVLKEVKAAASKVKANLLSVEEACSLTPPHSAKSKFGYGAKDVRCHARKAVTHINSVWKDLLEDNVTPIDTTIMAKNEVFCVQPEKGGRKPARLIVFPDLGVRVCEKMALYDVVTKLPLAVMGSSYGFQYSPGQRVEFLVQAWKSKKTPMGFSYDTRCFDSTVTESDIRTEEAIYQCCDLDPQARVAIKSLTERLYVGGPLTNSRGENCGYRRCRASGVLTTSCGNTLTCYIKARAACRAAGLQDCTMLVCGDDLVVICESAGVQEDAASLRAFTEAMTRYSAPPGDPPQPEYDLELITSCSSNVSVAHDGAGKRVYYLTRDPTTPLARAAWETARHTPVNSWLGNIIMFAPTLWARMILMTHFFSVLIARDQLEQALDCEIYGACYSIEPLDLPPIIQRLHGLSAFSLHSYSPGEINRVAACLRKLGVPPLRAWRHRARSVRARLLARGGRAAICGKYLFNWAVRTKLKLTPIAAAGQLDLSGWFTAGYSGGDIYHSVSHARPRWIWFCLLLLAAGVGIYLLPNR

SARS-CoV = settings: Vero E6 cells; read-out: half-effective concentration (EC50), SARS-CoV infection
Influenza virions = settings: Influenza A/WS/33, Ref. [37]
NS3 protease = NS3 protease (Hepatitis C virus genotype 1a, UniProt P26664); settings: for Molecular Mechanisms: HCV replication: NS3 protease
NS3 protease, sequence (P26664 1027-1657): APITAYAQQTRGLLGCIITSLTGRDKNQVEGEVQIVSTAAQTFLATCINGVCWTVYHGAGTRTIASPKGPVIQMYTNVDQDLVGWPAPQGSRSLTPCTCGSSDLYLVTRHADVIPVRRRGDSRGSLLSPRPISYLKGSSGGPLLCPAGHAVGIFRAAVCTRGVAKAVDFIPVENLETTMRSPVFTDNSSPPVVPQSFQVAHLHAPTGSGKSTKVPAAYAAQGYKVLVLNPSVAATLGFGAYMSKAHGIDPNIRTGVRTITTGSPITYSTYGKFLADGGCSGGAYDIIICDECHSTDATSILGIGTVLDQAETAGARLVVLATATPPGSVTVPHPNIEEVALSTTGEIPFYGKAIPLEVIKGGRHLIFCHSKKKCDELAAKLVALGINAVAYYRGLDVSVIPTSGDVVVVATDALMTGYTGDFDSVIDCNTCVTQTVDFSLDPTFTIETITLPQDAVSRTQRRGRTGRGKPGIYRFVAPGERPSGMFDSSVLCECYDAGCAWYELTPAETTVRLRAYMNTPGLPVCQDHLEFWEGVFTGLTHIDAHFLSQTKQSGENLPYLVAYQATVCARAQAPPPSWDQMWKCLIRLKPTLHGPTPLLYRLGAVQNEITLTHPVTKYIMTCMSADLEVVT
NS3 protease, sequence (P26664 1658-1711): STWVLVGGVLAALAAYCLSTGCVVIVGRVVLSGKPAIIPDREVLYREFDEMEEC

bovine coronavirus NCDCV = settings: at a concentration of 60 μg/mL
[1] = test system: Dengue virus type 2 (DENV-2); settings: Vero cells
cytomegalovirus = settings: inoculated HeLa cells; read-out: half inhibitory concentration (IC50), replication of cytomegalovirus
human coronavirus OC43 = settings: at a concentration of 60 μg/mL
NOX4 = settings: NOX4, Ref. [24]
DENV-2 virions = settings: DENV-2, Ref. [40]
PEDV = settings: Vero cells
Vero cells = settings: PEDV study

In the case of `O=c1cc(-c2ccc(O)cc2)oc2cc(O[C@@H]3O[C@H](CO)[C@@H](O)[C@H](O)[C@H]3O)cc(O)c12` [Apigenin-7-O-glucoside], the “Molecular Mechanisms: viral replication” value (Rotavirus virions) is listed as “Inhibition viral”.
In the case of `COc1ccc(-c2cc(=O)c3c(OC)c(OC)c(OC)c(OC)c3o2)cc1OC` [Nobiletin], the “Molecular Mechanisms: viral replication” value (Phosphoprotein P) is listed as “Inhibition of viral replication,” and the “Molecular Mechanisms: RSV entry into cells” value (Phosphoprotein P) is listed as “Inhibition of RSV entry into cells”.
In the case of `O=C1C[C@@H](c2ccc(O)cc2)Oc2cc(O)cc(O)c21` [Naringenin], the “Molecular Mechanisms: viral translation” value (NS5A, HSP70, HCV virions) is listed as “Inhibition Of viral”, the “Molecular Mechanisms: virion assembly” value (NS5A, HSP70, HCV virions) is listed as “Inhibition of virion” and the “Molecular Mechanisms: virion assembly” value (Envelope protein, 2) is listed as “Inhibition of virion assembly,”.
In the case of epigallocatechin-3-gallate [EGCG], the “Molecular Mechanisms: HIV replication” value (Reverse transcriptase) is listed as “Inhibition of HIV”, the “Molecular Mechanisms: HBV entry into cells” value (NTCP receptor) is listed as “Inhibition of HBV entryinto” and the “Molecular Mechanisms: virion production” value (HIV protease) is listed as “Inhibition virion production”. For the same molecule, the “Molecular Mechanisms: NS1 glycosylation” value (NS1) was “Inhibition of NS1 glycosylation”.
For `O=c1cc(-c2ccc(O)c(O)c2)oc2cc(O)cc(O)c12` [Luteolin], the “Molecular Mechanisms: HCV replication” value (HCV replicase) is given as “Inhibition HCV”, the CC50 (Vero E6 cells) is given as 155 µM and the “Molecular Mechanisms: HCV replication” value (NS5B polymerase) is given as “Inhibition of HCV”. For the same molecule, the EC50 (SARS-CoV) was 10.6 µM.
For `O=c1c(O)c(-c2ccc(O)c(O)c2)oc2cc(O)c(O)c(O)c12` [Quercetagetin], the “Molecular Mechanisms: RNA binding to NS5B” value (NS5B polymerase; HCV, Ref. [39]) is given as “Inhibition of RNA binding to NS5B”.
In the case of `O=C1c2c(O)cc(O)cc2OC(c2ccc(O)cc2)C1C1C(=O)c2c(O)cc(O)cc2OC1c1ccc(O)cc1` (stereo not drawn) [Chamaejasmin], the “Molecular Mechanisms: NS1 glycosylation” value (NS1) is listed as “Inhibition of NS1 glycosylation”.
In the case of `C[C@@H]1O[C@@H](Oc2c(-c3ccc(O)c(O)c3)oc3cc(O)cc(O)c3c2=O)[C@H](O)[C@H](O)[C@H]1O` [Quercetin-3-rhamnoside], the “Molecular Mechanisms: virus infection” value (Influenza virions) is given as “Inhibition of virus infection”.
For `COc1ccc(-c2cc(=O)c3c(OC)c(OC)c(OC)c(OC)c3o2)cc1` [Tangeretin], the “Molecular Mechanisms: viral replication” value (Phosphoprotein P) is given as “Inhibition of viral replication,” and the “Molecular Mechanisms: RSV entry into cells” value (Phosphoprotein P) is given as “Inhibition of RSV entry into cells”.
In the case of `O=c1c(O)c(-c2ccc(O)cc2)oc2cc(O[C@@H]3O[C@H](CO)[C@@H](O)[C@H](O)[C@H]3O)cc(O)c12` [Kaempferol-7-O-glucoside], the “Molecular Mechanisms: virion production” value (HIV protease) is listed as “Inhibition virion production”.
For Catechin, the “Molecular Mechanisms: viral translation” value (NS5A, HSP70, HCV virions) is listed as “Inhibition Of viral” and the “Molecular Mechanisms: virion assembly” value (NS5A, HSP70, HCV virions) is listed as “Inhibition of virion”.
In the case of `O=c1c(O)c(-c2ccc(O)c(O)c2)oc2cc(O)cc(O)c12` [Quercetin, 2-(3,4-dihydroxyphenyl)-3,5,7-trihydroxy-4H-1 benzopyran-4-one], the “Molecular Mechanisms: virion production” value (NS3 protease; HCV NS3 protease) is listed as “Inhibition of virion production”, the “Molecular Mechanisms: HCV replication” value (NS3 protease) is listed as “HCV NS3 protease Inhibition of HCV replication,” and the “reduced infectivity of bovine coronavirus NCDCV” value (bovine coronavirus NCDCV) is listed as 50%. The CC50 (Vero E6 cells; read-out: cytotoxicity CC50, Vero E6 cells) was 3320 µM, the “DENV-2 ribonucleic acid (RNA) reduction” value [1] was 67% and the “IC50, DENV-2 replication” value [1] was 35.7 µg/mL (≈ 118 µM). For the same molecule, the “Molecular Mechanisms: HCV replication” value (NS5B polymerase) was “Inhibition of HCV”, the IC50 (cytomegalovirus) was 3.2 ± 0.8 µM and the “reduced infectivity of human coronavirus OC43” value (human coronavirus OC43) was 50%. The “Molecular Mechanisms: viral translation” value (NS5A, HSP70, HCV virions) was “Inhibition Of viral”, the “Molecular Mechanisms: virion assembly” value (NS5A, HSP70, HCV virions) was “Inhibition of virion” and the “Molecular Mechanisms: virion assembly” value (Envelope protein, 2) was “Inhibition of virion assembly,”.
For `CC1O[C@@H](OC[C@H]2OC(Oc3cc4c(O)cc(O)cc4[o+]c3-c3cc(O)c(O)c(O)c3)[C@H](O)C(O)C2O)C(O)C(O)[C@H]1O` (stereo partly drawn) [Delphinidin-3-rutinoside], the “Molecular Mechanisms: HSV-1 replication” value (NOX4) is given as “Inhibition of HSV-1”.
In the case of `O=C(O)[C@H]1O[C@@H](Oc2cc3oc(-c4ccccc4)cc(=O)c3c(O)c2O)[C@H](O)[C@@H](O)[C@@H]1O` [Baicalin], the “Molecular Mechanisms: viral replication” value (DENV-2 virions) is listed as “Inhibition of viral replication,” and the “Molecular Mechanisms: viricidal activity” value (DENV-2 virions) is listed as “Viricidal activity”.
In the case of `C[C@@H]1O[C@@H](Oc2cc(O)c3c(=O)c(O)c(-c4ccc(O)c(O)c4)oc3c2)[C@H](O)[C@H](O)[C@H]1O` [quercetin 7-O-rhamnoside], the “IC50, PEDV replication” value (PEDV) is given as 0.014 µg/mL (≈ 0.0312 µM) and the “50% cytotoxicity concentration (CC50)” value (Vero cells) is given as 100 µg/mL.
In the case of `CC(C)=CC[C@@]12Oc3cc(O)c([C@H]4C=C(C)C[C@H](c5ccc(O)cc5O)[C@H]4C(=O)c4ccc(O)cc4O)c(O)c3C(=O)[C@]1(O)Oc1cc(O)ccc12` [sanggenon O], the “Molecular Mechanisms: NS1 glycosylation” value (NS1) is given as “Inhibition of NS1 glycosylation”.
In the case of `O=c1cc(-c2ccc(O)cc2)oc2cc(O)cc(O)c12` [Apigenin], the “Molecular Mechanisms: HCV replication” value (HCV replicase) is given as “Inhibition HCV” and the “Molecular Mechanisms: HCV replication” value (NS3 protease) is given as “Inhibition of HCV”.
